Laboratory results taken from US4753953A, “Pyridonecarboxylic acid derivatives and antibacterial pharmaceutical compositions thereof” (priority 1985, dated 1988).
Where two headings read alike, the source gives them in different places.

How the values were obtained:
Assay in all cases: MIC, in vitro antibacterial activity (standard strains)
[1] = test system: B. thetaiotaomicron (0661); assay type: cell-based; conditions: Bacteroides thetaiotaomicron; 10^6 cells/ml; Gram -; read-out: MIC
B. distasonis 8503 = assay type: cell-based; conditions: Parabacteroides distasonis, 8503; 10^6 cells/ml; Gram -; read-out: MIC
[2] = test system: S. aureus IID 670 (Terajima); assay type: cell-based, Staphylococcus aureus; conditions: Staphylococcus aureus, IID670; 10^6 cells/ml; Gram +; read-out: MIC
P. maltophilia GIFU 2491 = assay type: cell-based; conditions: Stenotrophomonas maltophilia, GIFU2491; 10^6 cells/ml; Gram -; read-out: MIC
[3] = test system: Bacteroides fragilis GM 7000; assay type: cell-based; conditions: Bacteroides fragilis, GM7000; 10^6 cells/ml; Gram -; read-out: MIC
B. fragilis 25285 = assay type: cell-based, Bacteroides fragilis; conditions: Bacteroides fragilis, 25285; 10^6 cells/ml; Gram -; read-out: MIC
[4] = test system: Salmonella enteritidis IID 604; assay type: cell-based; conditions: Salmonella enterica; 10^6 cells/ml; Gram -; read-out: MIC
S. epidermidis IID 866 = assay type: cell-based; conditions: Staphylococcus epidermidis, IID866; 10^6 cells/ml; Gram +; read-out: MIC
[5] = test system: Escherichia coli NIHJ JC-2; assay type: cell-based; conditions: Escherichia coli, NIHJJC2
E. coli ATCC 10536 = assay type: cell-based, Escherichia coli; conditions: Escherichia coli, ATCC10536; 10^6 cells/ml; Gram -; read-out: MIC
P. mirabilis IID 994 = assay type: cell-based; conditions: Proteus mirabilis, IID994; 10^6 cells/ml; Gram -; read-out: MIC
[6] = test system: Pseudomonas aeruginosa V-1; assay type: cell-based; conditions: Pseudomonas aeruginosa, V1; 10^6 cells/ml; Gram -; read-out: MIC
S. aureus Smith = assay type: cell-based, Staphylococcus aureus; conditions: Staphylococcus aureus; 10^6 cells/ml; Gram +; read-out: MIC
[7] = test system: Peptostreptococcus anaerobius KYA 27337; assay type: cell-based; conditions: Peptostreptococcus anaerobius, KYA27337; 10^6 cells/ml; Gram +; read-out: MIC
[8] = test system: Proteus vulgaris IFO 3167; assay type: cell-based; conditions: Proteus vulgaris, IFO3167; 10^6 cells/ml; Gram -; read-out: MIC
B. vulgatus KYA 29327 = assay type: cell-based; conditions: Phocaeicola vulgatus, KYA29327; 10^6 cells/ml; Gram -; read-out: MIC
[9] = test system: Klebsiella pneumoniae KY(GN)6445; assay type: cell-based; conditions: Klebsiella pneumoniae; 10^6 cells/ml; Gram -; read-out: MIC
F. varium KYA 8501 = assay type: cell-based; conditions: Fusobacterium varium, KYA8501; 10^6 cells/ml; Gram -; read-out: MIC
[10] = test system: Veillonella parvula KYA 10790; assay type: cell-based; conditions: Veillonella parvula, KYA10790; 10^6 cells/ml; Gram -; read-out: MIC
[11] = test system: Citrobacter freundii IID 976; assay type: cell-based; conditions: Citrobacter freundii, IID976; 10^6 cells/ml; Gram -; read-out: MIC
K. pneumoniae 1-220S = assay type: cell-based, Klebsiella pneumoniae; conditions: Klebsiella pneumoniae, 1220S; 10^6 cells/ml; Gram -; read-out: MIC
C. ramosum = assay type: cell-based; conditions: Thomasclavelia ramosa; 10^6 cells/ml; Gram +; read-out: MIC
P. aeruginosa IID 1210 = assay type: cell-based, Pseudomonas aeruginosa; conditions: Pseudomonas aeruginosa, IID1210; 10^6 cells/ml; Gram -; read-out: MIC
[12] = test system: Clostridium difficile I-E; assay type: cell-based; conditions: Clostridioides difficile; 10^6 cells/ml; Gram +
[13] = test system: Bacillus subtilis PCI 219; assay type: cell-based; conditions: Bacillus subtilis, PCI219; 10^6 cells/ml; Gram +; read-out: MIC
[14] = test system: Fusobacterium mortiferum 4249; assay type: cell-based; conditions: Fusobacterium mortiferum, 4249; 10^6 cells/ml; Gram -; read-out: MIC
Pst. micros UPI 5464-1 = assay type: cell-based; conditions: Parvimonas micra, UPI54641; 10^6 cells/ml; Gram +; read-out: MIC
[15] = test system: Morganella morganii IID 602; assay type: cell-based; conditions: Morganella morganii, IID602; 10^6 cells/ml; Gram -; read-out: MIC
E. faecalis IID 682 = assay type: cell-based; conditions: Enterococcus faecalis, IID682; 10^6 cells/ml; Gram +; read-out: MIC
[16] = test system: Streptococcus pyogenes (S-8); assay type: cell-based; conditions: Streptococcus pyogenes; 10^6 cells/ml; Gram +; read-out: MIC
S. pneumoniae IID 552 = assay type: cell-based; conditions: Streptococcus pneumoniae, IID552; 10^6 cells/ml; Gram +; read-out: MIC
S. pyogenes IID 692 = assay type: cell-based, Streptococcus pyogenes; conditions: Streptococcus pyogenes, IID692; 10^6 cells/ml; Gram +; read-out: MIC
[17] = 10^6 cells/ml, Gram -, read-out: MIC

Measured: MIC

C[C@@H]1CN(c2c(F)cc3c(=O)c(C(=O)O)cn(C4CC4)c3c2Cl)C[C@H]1N (relative stereo) [Example 17, 7-(trans-3-Amino-4-methyl-1-pyrrolidinyl)-8-chloro-1-cyclopropyl-6-fluoro-1,4-dihydro-4-oxo-3-quinolinecarboxylic acid]
0.78 µg/mL: F. varium KYA 8501
0.05 µg/mL: [2] | P. maltophilia GIFU 2491 | [3] | B. fragilis 25285 | S. epidermidis IID 866 | B. vulgatus KYA 29327 | [10] | Pst. micros UPI 5464-1 | [15]
0.0125 µg/mL: [8] | [9] | [11] | K. pneumoniae 1-220S | [13]
0.39 µg/mL: C. ramosum | P. aeruginosa IID 1210 | [12]
0.0063 µg/mL: [5]; [17] | E. coli ATCC 10536
0.025 µg/mL: [4] | P. mirabilis IID 994 | S. aureus Smith
0.1 µg/mL: [1] | B. distasonis 8503 | [6] | [7] | [14]

CC1CN(c2c(F)cc3c(=O)c(C(=O)O)cn(C4CC4)c3c2Cl)CC1N (stereo not drawn) [Example 7, 7-(3-Amino-4-methyl-1-pyrrolidinyl)-8-chloro-1-cyclopropyl-6-fluoro-1,4-dihydro-4-oxo-3-quinolinecarboxylic acid]
0.0125 µg/mL: E. coli ATCC 10536 | [8] | [9] | [13]
0.1 µg/mL: E. faecalis IID 682 | [3] | B. vulgatus KYA 29327 | [16] | [10] | S. pneumoniae IID 552 | Pst. micros UPI 5464-1 | S. pyogenes IID 692
0.2 µg/mL: [1] | [6] | [7] | [14]
0.025 µg/mL: [4] | P. mirabilis IID 994 | [11]
0.78 µg/mL: F. varium KYA 8501 | C. ramosum
0.05 µg/mL: [2] | P. maltophilia GIFU 2491 | B. fragilis 25285 | S. epidermidis IID 866 | S. aureus Smith | K. pneumoniae 1-220S | [15]
0.0063 µg/mL: [5]; [17]
0.39 µg/mL: B. distasonis 8503 | P. aeruginosa IID 1210

CC1CN(c2c(F)cc3c(=O)c(C(=O)O)cn(C4CC4)c3c2F)CC1N.Cl (stereo not drawn) [Example 11, 7-(3-Amino-4-methyl-1-pyrrolidinyl)-1-cyclopropyl-6,8-difluoro-1,4-dihydro-4-oxo-3-quinolinecarboxylic acid hydrochloride]
0.0125 µg/mL: [5]
0.025 µg/mL: E. coli ATCC 10536 | [8] | [9] | [13]
0.05 µg/mL: [4] | P. mirabilis IID 994 | S. aureus Smith | [11] | K. pneumoniae 1-220S | [15]
0.39 µg/mL: B. fragilis 25285 | [6] | [7] | B. vulgatus KYA 29327 | [10] | P. aeruginosa IID 1210 | [14] | Pst. micros UPI 5464-1
0.78 µg/mL: [1] | B. distasonis 8503 | [3]
1.56 µg/mL: F. varium KYA 8501 | C. ramosum
0.1 µg/mL: [2] | P. maltophilia GIFU 2491 | S. epidermidis IID 866

CC1CN(c2c(F)cc3c(=O)c(C(=O)O)cn(C4CC4)c3c2Cl)CC1CN (stereo not drawn) [Example 1, 7-(3-Aminomethyl-4-methyl-1-pyrrolidinyl)-8-chloro-1-cyclopropyl-6-fluoro-1,4-dihydro-4-oxo-3-quinolinecarboxylic acid]
0.39 µg/mL: B. distasonis 8503 | F. varium KYA 8501 | Pst. micros UPI 5464-1
0.025 µg/mL: [2] | [5]; [17] | E. coli ATCC 10536 | S. pyogenes IID 692
0.78 µg/mL: P. aeruginosa IID 1210
≤ 0.05 µg/mL: B. fragilis 25285 | [7] | [14]
0.1 µg/mL: [1] | P. maltophilia GIFU 2491 | [6] | B. vulgatus KYA 29327 | [10] | [15]
≤ 0.1 µg/mL: [3]
0.2 µg/mL: C. ramosum
0.0125 µg/mL: S. epidermidis IID 866 | S. aureus Smith | [16] | S. pneumoniae IID 552 | [13]
0.05 µg/mL: E. faecalis IID 682 | [4] | P. mirabilis IID 994 | [8] | [9] | [11] | K. pneumoniae 1-220S
